Measurements: patent publication US10865191B2, “Heterocyclic compounds useful as modulators of TNF alpha” (BRISTOL-MYERS SQUIBB COMPANY, priority 2015, dated 2020)
Like-named read-outs stand apart in the source and are kept apart here.

Molecular target: TNFα (Homo sapiens, UniProt P01375)
Assay: TNF induced HEK-Blue assay (NF-kB-driven secreted alkaline phosphatase reporter)
Format: cell-based
Details: TNFα 0.5 ng/mL, HEK-Blue-CD40L cells, 18 h
Summary of the method: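 HEK-Blue-CD40L cells (NF-kB-driven SEAP reporter), 20,000/well, added after 30 min pre-incubation of compound (0.004–25 μM final) with TNFα 0.5 ng/mL final at 37 °C; 18 h incubation. SEAP read with QUANTI-Blue at 620 nm; IC50 from 4-parameter logistic fit, normalized to unstimulated and stimulated DMSO controls.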

[1] = read-out: TNF induced HEK-Blue assay IC50 value

Chain of TNFα (P01375 77-233 limits assumed): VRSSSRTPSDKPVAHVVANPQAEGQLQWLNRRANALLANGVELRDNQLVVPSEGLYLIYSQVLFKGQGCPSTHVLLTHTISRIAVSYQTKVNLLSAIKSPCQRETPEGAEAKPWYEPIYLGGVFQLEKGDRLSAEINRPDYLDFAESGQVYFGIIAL

Row | Structure (SMILES) | IC50 [1] [nM] | IC50 (TNF induced HEK-Blue assay IC50 value) [nM]
1 | CC(Nc1c(Cl)cnc2cc(F)c(-c3ccc(C(O)CN4CCOCC4)cc3)cc12)c1ccccc1F (stereo not drawn) [Example 277, 1-(4-(3-chloro-7-fluoro-4-((1-(2-fluorophenyl)ethyl)amino)quinolin-6-yl)phenyl)-2-morpholinoethan-1-ol] | < 1000 | 
2 | CC(C)(O)c1ncc(-c2cc3c(NC4(c5ccccc5F)CC4)c(Cl)cnc3cc2F)cn1 [Example 278, 2-(5-(3-chloro-7-fluoro-4-((1-(2-fluorophenyl)cyclopropyl)amino)quinolin-6-yl)pyrimidin-2-yl)propan-2-ol] | < 1000 | 
3 | CC(C)(O)c1ccc(-c2cc3c(NC4(c5ccccc5F)CC4)c(Cl)cnc3cc2F)cc1 [Example 279, 2-(4-(3-chloro-7-fluoro-4-((1-(2-fluorophenyl)cyclopropyl)amino)quinolin-6-yl)phenyl) propan-2-ol] | 1000 to 10000 | 
4 | C[C@@H](Nc1c(Cl)cnc2cc(F)c(-c3ccc(N4CCN(CC(=O)O)CC4)cc3)cc12)c1ccccc1F [Example 280, (R)-2-(4-(4-(3-chloro-7-fluoro-4-((1-(2-fluorophenyl)ethyl)amino)quinolin-6-yl)phenyl)piperazin-1-yl)acetic acid] | < 1000 | 
5 | CC(Nc1c(Cl)cnc2cc(F)c(-c3cnc(N4CCC(O)C4)cn3)cc12)c1ccccc1F (stereo not drawn) [Example 284, 1-(5-(3-chloro-7-fluoro-4-((1-(2-fluorophenyl)ethyl)amino)quinolin-6-yl)pyrazin-2-yl)pyrrolidin-3-ol] | 1000 to 10000 | 
6 | C[C@@H](Nc1c(Cl)cnc2ccc(-c3cnc(N4CCN(CC(=O)O)CC4)nc3)cc12)c1ccccc1F [Example 285, (R)-2-(4-(5-(3-chloro-4-((1-(2-fluorophenyl)ethyl)amino)quinolin-6-yl)pyrimidin-2-yl)piperazin-1-yl)acetic acid] |  | < 1000
7 | CC(Nc1c(Cl)cnc2cc(F)c(-c3ccc(C(O)CN4CCOCC4)cc3)cc12)c1ccccc1F (stereo not drawn) [Example 286, 1-(4-(3-chloro-7-fluoro-4-((1-(2-fluorophenyl)ethyl)amino)quinolin-6-yl)phenyl)-2-morpholinoethan-1-ol] | < 1000 | 
8 | CC(Nc1c(Cl)cnc2cc(F)c(-c3ccc(C(O)CN4CCOCC4)cc3)cc12)c1ccccc1F (stereo not drawn) [Example 288, 1-(4-(3-chloro-7-fluoro-4-((1-(2-fluorophenyl)ethyl)amino)quinolin-6-yl)phenyl)-2-morpholinoethan-1-ol] | 1000 to 10000 | 
9 | CC(Nc1c(Cl)cnc2cc(F)c(-c3cnc(C4(O)CCS(=O)(=O)CC4)nc3)cc12)c1ccccc1F (stereo not drawn) [Example 289, 4-(5-(3-chloro-7-fluoro-4-((1-(2-fluorophenyl)ethyl)amino)quinolin-6-yl)pyrimidin-2-yl)-4-hydroxytetrahydro-2H-thiopyran 1,1-dioxide] | < 1000 | 
10 | CC(Nc1c(Cl)cnc2cc(F)c(-c3ccc(C(O)CO)cc3)cc12)c1ccccc1F (stereo not drawn) [Example 290, 1-(4-(3-chloro-7-fluoro-4-((1-(2-fluorophenyl)ethyl)amino)quinolin-6-yl)phenyl)ethane-1,2-diol] | < 1000 | 
11 | CC(Nc1c(Cl)cnc2cc(F)c(-c3ccc(C(O)CO)cc3)cc12)c1ccccc1F (stereo not drawn) [Example 291, 1-(4-(3-chloro-7-fluoro-4-((1-(2-fluorophenyl)ethyl)amino)quinolin-6-yl)phenyl)ethane-1,2-diol] | < 1000 | 
12 | COCC(C)(O)c1ncc(-c2cc3c(NC(C)c4ccccc4F)c(Cl)cnc3cc2F)cn1 (stereo not drawn) [Example 292, 2-(5-(3-chloro-7-fluoro-4-((1-(2-fluorophenyl)ethyl)amino)quinolin-6-yl)pyrimidin-2-yl)-1-methoxypropan-2-ol] | < 1000 | 
13 | COCC(C)(O)c1ncc(-c2cc3c(NC(C)c4ccccc4F)c(Cl)cnc3cc2F)cn1 (stereo not drawn) [Example 293, 2-(5-(3-chloro-7-fluoro-4-((1-(2-fluorophenyl)ethyl)amino)quinolin-6-yl)pyrimidin-2-yl)-1-methoxypropan-2-ol] | < 1000 | 
14 | CC(Nc1c(Cl)cnc2cc(F)c(-c3cnc(C4(O)CCC(C(=O)O)CC4)nc3)cc12)c1ccccc1F (stereo not drawn) [Example 295, 4-(5-(3-chloro-7-fluoro-4-((1-(2-fluorophenyl)ethyl)amino)quinolin-6-yl)pyrimidin-2-yl)-4-hydroxycyclohexane-1-carboxylic acid] | < 1000 | 
15 | CC(C)(O)c1ncc(-c2cc(F)c3ncc(Cl)c(N[C@@H](c4ccccc4F)C(F)F)c3c2)cn1 [Example 297, (S)-2-(5-(3-chloro-4-((2,2-difluoro-1-(2-fluorophenyl)ethyl)amino)-8-fluoroquinolin-6-yl)pyrimidin-2-yl)propan-2-ol] | < 1000 | 
16 | Cc1nc2c(F)cc(-c3cnc(C(C)(C)O)nc3)cc2c(N[C@@H](c2ccccc2F)C(F)F)c1Cl [Example 299, (S)-2-(5-(3-chloro-4-((2,2-difluoro-1-(2-fluorophenyl)ethyl)amino)-8-fluoro-2-methylquinolin-6-yl)pyrimidin-2-yl)propan-2-ol] | < 1000 | 
17 | Cc1nc2c(F)cc(-c3cnc(C(C)(C)O)nc3)cc2c(N[C@H](C)c2cc(C#N)ccc2F)c1Cl [Example 302, (R)-3-(1-((3-chloro-8-fluoro-6-(2-(2-hydroxypropan-2-yl)pyrimidin-5-yl)-2-methylquinolin-4-yl)amino)ethyl)-4-fluorobenzonitrile] | < 1000 | 
18 | Cc1nc2c(F)cc(-c3cnc(C(C)(C)O)nc3)cc2c(N[C@H](C)c2cc(C(N)=O)ccc2F)c1Cl [Example 303, (R)-3-(1-((3-chloro-8-fluoro-6-(2-(2-hydroxypropan-2-yl)pyrimidin-5-yl)-2-methylquinolin-4-yl)amino)ethyl)-4-fluorobenzamide] | < 1000 | 
19 | C[C@@H](Nc1c(Cl)cnc2cc(F)c(-c3cnc(N4CCN(CC(=O)NCC(=O)O)CC4)nc3)cc12)c1ccccc1F [Example 304, (R)-(2-(4-(5-(3-chloro-7-fluoro-4-((1-(2-fluorophenyl)ethyl)amino)quinolin-6-yl)pyrimidin-2-yl)piperazin-1-yl)acetyl)glycine] | < 1000 | 
20 | Cc1nc2c(F)cc(-c3ccc(C(C)(C)O)cc3)cc2c(N[C@@H](c2ccccc2F)C(F)F)c1Cl [Example 305, (S)-2-(4-(3-chloro-4-((2,2-difluoro-1-(2-fluorophenyl)ethyl)amino)-8-fluoro-2-methylquinolin-6-yl)phenyl)propan-2-ol] | < 1000 | 
21 | Cc1nc2c(F)cc(-c3cnc(C(C)(C)O)nc3)cc2c(NC(C)c2ccccc2)c1Cl (stereo not drawn) [Example 306, 2-(5-(3-chloro-8-fluoro-2-methyl-4-((1-phenylethyl)amino)quinolin-6-yl)pyrimidin-2-yl)propan-2-ol] | < 1000 | 
22 | Cc1nc2ccc(-c3ccc(C(C)(C)O)cc3)cc2c(N[C@H](C)c2cc(C(N)=O)ccc2F)c1Cl [Example 312, (R)-3-(1-((3-chloro-6-(4-(2-hydroxypropan-2-yl)phenyl)-2-methylquinolin-4-yl)amino)ethyl)-4-fluorobenzamide] | < 1000 | 
23 | Cc1nc2ccc(-c3cnc(N4CCOCC4)nc3)cc2c(N[C@H](C)c2cc(C(N)=O)ccc2F)c1Cl [Example 313, (R)-3-(1-((3-chloro-2-methyl-6-(2-morpholinopyrimidin-5-yl)quinolin-4-yl)amino)ethyl)-4-fluorobenzamide] | < 1000 | 
24 | Cc1nc2ccc(-c3cnc(C(C)(C)O)nc3)cc2c(N[C@H](C)c2cc(C#N)ccc2F)c1C [Example 314, (R)-4-fluoro-3-(1-((6-(2-(2-hydroxypropan-2-yl)pyrimidin-5-yl)-2,3-dimethylquinolin-4-yl)amino)ethyl)benzonitrile] | < 1000 | 
